Like-named read-outs stand apart in the source and are kept apart here. Each block holds one compound with its values, some of them ahead of it.
How the values were obtained:
hASIC1a = molecular target: T1, hASIC1a (Homo sapiens, UniProt P78348); experiment: Two-electrode voltage clamp in Xenopus laevis oocytes expressing hASIC1a (OpusExpress); format: cell-based; set-up: expressed in transfected cells; host or cells: Xenopus laevis oocytes, nuclear microinjection of cDNA (e.g. in pCDNA3)
T1 sequence (P78348 1-528): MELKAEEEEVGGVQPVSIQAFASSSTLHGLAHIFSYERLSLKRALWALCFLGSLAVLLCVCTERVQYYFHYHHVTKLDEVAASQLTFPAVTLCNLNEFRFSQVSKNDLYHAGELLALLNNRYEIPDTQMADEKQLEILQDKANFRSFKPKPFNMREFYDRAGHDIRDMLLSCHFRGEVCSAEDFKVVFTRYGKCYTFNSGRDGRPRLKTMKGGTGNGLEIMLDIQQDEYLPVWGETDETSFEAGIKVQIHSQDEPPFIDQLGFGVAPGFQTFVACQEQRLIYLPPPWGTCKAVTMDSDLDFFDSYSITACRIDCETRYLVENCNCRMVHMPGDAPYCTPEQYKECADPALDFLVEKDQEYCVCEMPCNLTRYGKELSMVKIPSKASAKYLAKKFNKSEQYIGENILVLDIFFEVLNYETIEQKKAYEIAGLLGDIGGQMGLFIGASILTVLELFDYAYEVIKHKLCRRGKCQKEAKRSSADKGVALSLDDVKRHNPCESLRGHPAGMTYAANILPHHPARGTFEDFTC
Method: Two-electrode voltage clamp electrophysiological assays in Xenopus laevis oocytes expressing gated ion channels are performed as follows:
Oocytes are surgically removed from adult Xenopus laevis and treated for 2 h at room temperature with 1 mg/ml type I collagenase (Sigma) in Barth's solution under mild agitation. Selected oocytes at stage IV-V are defolliculated manually before nuclear microinjection of 2.5-5 ng of a suitable expression vector, such as pCDNA3, comprising the nucleotide sequence encoding a gated ion channel subunit protein. In such an experiment, the oocytes express homomultimeric proton-gated ion channels on their surface. In an alternate experiment, one, two, three or more vectors comprising the coding sequences for distinct gated ion channel subunits are co-injected in the oocyte nuclei. In the latter case, oocytes express heteromultimeric proton-gated ion channels. […] Once impaled with the microelectrodes, oocytes are continuously superfused at 10-12 ml/min with a modified Ringer's solution containing 97 mM NaCl, 2 mM KCl, 1.8 mM CaCl2, and 10 mM HEPES brought to pH 7.4 with NaOH (Control Ringer). Test Ringer solution is prepared by replacing HEPES with MES and adjusting the pH to the desired acidic value. Compounds of the present invention are prepared in both the Control and Test Ringer solutions and applied to oocytes at room temperature through a computer-controlled switching valve system. […] Similarly, recordings can also be acquired in an automated multichannel oocytes system as the OpusExpress™ (Molecular Devices, Sunnyvale, Calif., USA).
Recordings were acquired from oocytes expressing homomeric hASIC1a using a two-electrode voltage-clamp configuration procedure as described herein.

hASIC3 = molecular target: T2, hASIC3 (Homo sapiens, UniProt Q9UHC3); experiment: FlexStation assay on HEK293 cells expressing hASIC3; format: cell-based; set-up: expressed in transfected cells; host or cells: HEK293 cells; conditions: for IC50: FlexStation (Flex), Tables A-F, read-out: Biological Data (IC50 uM) h3 (Flex); for EC50: Table H, cells marked (h3), HEK293, read-out: EC50 (μM) Flex/FLIPR (h3)
T2 sequence (Q9UHC3 1-531): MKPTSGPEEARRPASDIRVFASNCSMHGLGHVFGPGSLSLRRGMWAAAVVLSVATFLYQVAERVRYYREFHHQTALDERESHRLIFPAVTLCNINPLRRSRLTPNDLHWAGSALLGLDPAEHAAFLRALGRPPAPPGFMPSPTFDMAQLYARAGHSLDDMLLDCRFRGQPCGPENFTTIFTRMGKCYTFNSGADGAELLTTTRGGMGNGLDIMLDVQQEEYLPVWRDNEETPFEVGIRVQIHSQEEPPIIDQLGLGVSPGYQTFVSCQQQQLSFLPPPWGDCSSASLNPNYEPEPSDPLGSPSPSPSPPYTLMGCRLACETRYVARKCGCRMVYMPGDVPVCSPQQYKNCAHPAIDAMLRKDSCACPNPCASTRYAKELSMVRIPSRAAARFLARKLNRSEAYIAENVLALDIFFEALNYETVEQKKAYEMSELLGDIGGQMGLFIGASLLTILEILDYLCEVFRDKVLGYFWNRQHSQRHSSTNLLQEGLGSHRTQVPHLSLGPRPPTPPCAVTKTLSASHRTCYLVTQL
Method: A vial of FMP dye (Molecular Devices) is resuspended in 10.5 ml of assay buffer (48.3 mM NaCl, 93 mM NMDG, 5 mM KCl, 5 mM CaCl2, 1 mM MgCl2, 10 mM HEPES, pH 7.4). The culture medium is aspirated from the wells, and 100 μl of the FMP loading solution is added to each well. The cells are incubated at 37° C. for 30 min.
After the loading period, the loading solution is left on the cells and the membrane potential-induced fluorescence is measured in FLIPR™ or FlexStation™ (Molecular Devices, USA), or any other suitable equipment known to the skilled in the art.
For cells co-expressing ASIC1a and ASIC3 channels (e.g. HEK293 cells), membrane potential dye (FMP dye) is used and the FlexStation settings are as above.
The MES-induced peak calcium response (or change in membrane potential), in the presence of test substance, is expressed relative to the MES response alone. Test substances that block the MES-induced calcium response (or change in membrane potential) are re-tested in triplicates. Confirmed hits are picked for further characterization by performing full dose-response curves to determine potency of each hit compound as represented by the IC50 values (i.e., the concentration of the test substance which inhibits 50% of the MES-induced calcium and/or membrane potentiation response; see, for example, FIG. 1).
The data shown in Table H was acquired using the FlexStation assay described in Example 1 on HEK293 cells expressing hASIC3 (h3) and/or hASIC1a (h1a).

[1] = OpusExpress (OX), Tables A-F, h1a printed in some cells only
[2] = OpusExpress (OX), Tables A-F, h1a printed in some cells only, read-out: Biological Data (IC50 uM) h1a (OX)
[3] = Table H, read-out: IC50 (μM) Opus Express (h1a)

Biological Data (IC50 uM) h1a (OX) (hASIC1a; [1]): Not Active
Structure (SMILES): CCc1nc(NC2CCN(Cc3ccccc3)CC2)c2ccccc2n1 [Compound 33, (1-benzyl-piperidin-4-yl)-(2-ethyl-quinazolin-4-yl)-amine]

IC50 (hASIC1a; [2]): > 50 µM
IC50 (hASIC3): 15 to 25 µM
Structure (SMILES): O=C(O)c1cc(-c2ccc(Cl)cc2)nc2ccc(Cl)cc12 [Compound 36, 6-chloro-2-(4-chloro-phenyl)-quinoline-4-carboxylic acid]

IC50 (hASIC3): 10 to 20 µM
Structure (SMILES): COc1ccc(-c2cc(C(=O)O)c3cc(Cl)ccc3n2)c(O)c1 [Compound 37, 6-chloro-2-(2-hydroxy-4-methoxy-phenyl)-acid]

Biological Data (IC50 uM) h1a (OX) (hASIC1a; [1]): Not Active (OX)
Structure (SMILES): COc1ccc(-c2cc(C(=O)N3CCN(CCc4ccccc4)CC3)c3ccccc3n2)cc1OC [Compound 42, [2-(3,4-dimethoxy-phenyl)-quinolin-4-yl]-(4-phenethyl-piperazin-1-yl)-methanone]

Biological Data (IC50 uM) h1a (OX) (hASIC1a; [1]): Not Active (OX)
Structure (SMILES): COc1ccc(-c2cc(C(=O)N3CCN(Cc4ccc5c(c4)OCO5)CC3)c3cc(Cl)ccc3n2)c(O)c1 [Compound 45, (4-benzo[1,3]dioxol-5-ylmethyl-piperazin-1-yl)-[6-chloro-2-(2-hydroxy-4-methoxy-phenyl)-quinolin-4-yl]-methanone]

Biological Data (IC50 uM) h1a (OX) (hASIC1a; [1]): Not Active (OX)
Structure (SMILES): Cc1cc(N2CCN(C(=O)OC(C)(C)C)CC2)c2ccccc2n1 [Compound 59, 4-(2-methyl-quinolin-4-yl)-piperazine-1-carboxylic acid tert-butyl ester]

Biological Data (IC50 uM) h1a (OX) (hASIC1a; [1]): Not Active (OX)
Structure (SMILES): Cc1cc(N2CCN(c3ccccc3C#N)CC2)c2ccccc2n1 [Compound 60, 2-[4-(2-methyl-quinolin-4-yl)-piperazin-1-yl]-benzonitrile]

Biological Data (IC50 uM) h1a (OX) (hASIC1a; [1]): Not Active (OX)
Structure (SMILES): Cc1cc(N2CCN(c3ccc([N+](=O)[O-])cc3)CC2)c2ccccc2n1 [Compound 61, 2-methyl-4-[4-(4-nitro-phenyl)-piperazin-1-yl]-quinoline]

Biological Data (IC50 uM) h1a (OX) (hASIC1a; [1]): Not Active (OX)
Structure (SMILES): O=C(O)c1ccc(Nc2ncnc3ccccc23)cc1 [Compound 102, 4-(quinazolin-4-ylamino)-benzoic acid]

Biological Data (IC50 uM) h1a (OX) (hASIC1a; [1]): Not Active (OX)
Structure (SMILES): O=C(O)c1ccc(Nc2ncnc3ccc([N+](=O)[O-])cc23)cc1 [Compound 103, 4-(6-nitro-quinazolin-4-ylamino)-benzoic acid]

Biological Data (IC50 uM) h1a (OX) (hASIC1a; [1]): Not Active (OX)
Structure (SMILES): Cc1ccc(-c2nc(Nc3ccccc3)c3ccccc3n2)cc1 [Compound 104, Phenyl-(2-p-tolyl-quinazolin-4-yl)-amine]

Biological Data (IC50 uM) h1a (OX) (hASIC1a; [1]): Not Active (OX)
Structure (SMILES): Cc1ccc(-c2nc(NCCCC(=O)O)c3ccccc3n2)cc1 [Compound 105, 4-(2-p-tolyl-quinazolin-4-ylamino)-butyric acid]

Biological Data (IC50 uM) h1a (OX) (hASIC1a; [1]): Not Active (OX)
Structure (SMILES): Cc1ccc(-c2nc(N(C)c3ccc(C(=O)O)cc3)c3ccccc3n2)cc1 [Compound 106, 4-[methyl-(2-p-tolyl-quinazolin-4-yl)-amino]-benzoic acid]

Biological Data (IC50 uM) h1a (OX) (hASIC1a; [1]): Not Active (OX)
Structure (SMILES): Cc1ccc(-c2nc(NC3CCN(Cc4ccccc4)CC3)c3ccc(Cl)cc3n2)cc1 [Compound 108, (1-benzyl-piperidin-4-yl)-(7-chloro-2-p-tolyl-quinazolin-4-yl)-amine]

Structure (SMILES): Cc1ccc(-c2nc(OCCCCCl)c3cc([N+](=O)[O-])ccc3n2)cc1 [Compound 109, 4-(4-chloro-butoxy)-6-nitro-2-p-tolyl-quinazoline]
Biological Data (IC50 uM) h1a (OX) (hASIC1a; [1]): Not Active (OX)

Biological Data (IC50 uM) h1a (OX) (hASIC1a; [1]): Not Active (OX)
Structure (SMILES): Cc1ccc(-c2nc(N3CCCCC3)c3ccc(Cl)cc3n2)cc1 [Compound 110, 7-chloro-4-piperidin-1-yl-2-p-tolyl-quinazoline]

Biological Data (IC50 uM) h1a (OX) (hASIC1a; [1]): Not Active (OX)
Structure (SMILES): CCc1nc(NCCOC)c2ccccc2n1 [Compound 111, (2-ethyl-quinazolin-4-yl)-(2-methoxy-ethyl)-amine]

IC50 (hASIC1a; [2]): 15 to 25 µM
Structure (SMILES): COc1ccc(CN2CCC(Oc3cc(C)nc4ccccc34)CC2)cc1 [Compound 112, 4-[1-(4-Methoxy-benzyl)-piperidin-4-yloxy]-2-methyl-quinoline]

IC50 (hASIC1a; [2]): > 30 µM
IC50 (hASIC1a; [3]): 17.1 µM
Structure (SMILES): C=CCOC(=O)N1CCC(Oc2cc(C)nc3ccccc23)CC1 [Compound 113, 4-(2-methyl-quinolin-4-yloxy)-piperidine-1-carboxylic acid allyl ester]

IC50 (hASIC3): 5 to 15 µM
EC50 (hASIC3): > 10 µM
Structure (SMILES): CN1CCN(c2nc(-c3ccccc3F)nc3ccccc23)CC1 [Compound L, 2-(2-fluoro-phenyl)-4-(4-methyl-piperazin-1-yl)-quinazoline]

Structure (SMILES): Cc1cc(N2CCNCC2)c2ccccc2n1 [Compound M, 2-methyl-4-piperazin-1-yl-quinoline]
Biological Data (IC50 uM) h1a (OX) (hASIC1a; [1]): inactive
IC50 (μM) Opus Express (h1a) (hASIC1a; Table H): Inactive
IC50 (hASIC3): 5 to 15 µM
EC50 (hASIC3): > 10 µM

IC50 (μM) Opus Express (h1a) (hASIC1a; Table H): Inactive
EC50 (hASIC3): > 20 µM
Structure (SMILES): Cc1cc(N2CCN(C(=O)OCc3ccccc3)CC2)c2ccccc2n1 [Compound N, 4-(2-methyl-quinolin-4-yl)-piperazine-1-carboxylic acid benzyl ester]

IC50 (hASIC1a; [3]): > 50 µM
IC50 (hASIC3): 10 to 20 µM
EC50 (hASIC3): > 10 µM
Structure (SMILES): Cc1cc(N2CCN(Cc3ccc4c(c3)OCO4)CC2)c2ccccc2n1 [Compound P]

IC50 (hASIC3): 25 to 35 µM
EC50 (hASIC3): > 20 µM
Structure (SMILES): FC(F)(F)c1ccc2c(OC3CCN(Cc4ccccc4)CC3)ccnc2c1 [Compound S, 4-(1-benzyl-piperidin-4-yloxy)-7-trifluoromethyl-quinoline]

EC50 (hASIC3): > 20 µM
Structure (SMILES): Cc1ccc(-c2nc(Nc3cccc(C(=O)O)c3)c3ccccc3n2)cc1 [Compound T, 3-(2-p-tolyl-quinazolin-4-ylamino)-benzoic acid]

— patent US20070197509A1, “Compositions and methods for modulating gated ion channels” (PainCeptor Pharma Corporation, priority 2005, published 2007)
